# Source: PMC9696254, “Discovery of p-Terphenyl Metabolites as Potential Phosphodiesterase PDE4D Inhibitors from the Coral-Associated Fungus Aspergillus sp. ITBBc1” (Marine Drugs, 2022)
# Target: PDE4D (Homo sapiens, UniProt Q08499)
# Assay: in vitro PDE4D inhibition assay, liquid scintillation counting, three independent experiments
# Format: biochemical
# Sequence of PDE4D (Q08499 whole entry): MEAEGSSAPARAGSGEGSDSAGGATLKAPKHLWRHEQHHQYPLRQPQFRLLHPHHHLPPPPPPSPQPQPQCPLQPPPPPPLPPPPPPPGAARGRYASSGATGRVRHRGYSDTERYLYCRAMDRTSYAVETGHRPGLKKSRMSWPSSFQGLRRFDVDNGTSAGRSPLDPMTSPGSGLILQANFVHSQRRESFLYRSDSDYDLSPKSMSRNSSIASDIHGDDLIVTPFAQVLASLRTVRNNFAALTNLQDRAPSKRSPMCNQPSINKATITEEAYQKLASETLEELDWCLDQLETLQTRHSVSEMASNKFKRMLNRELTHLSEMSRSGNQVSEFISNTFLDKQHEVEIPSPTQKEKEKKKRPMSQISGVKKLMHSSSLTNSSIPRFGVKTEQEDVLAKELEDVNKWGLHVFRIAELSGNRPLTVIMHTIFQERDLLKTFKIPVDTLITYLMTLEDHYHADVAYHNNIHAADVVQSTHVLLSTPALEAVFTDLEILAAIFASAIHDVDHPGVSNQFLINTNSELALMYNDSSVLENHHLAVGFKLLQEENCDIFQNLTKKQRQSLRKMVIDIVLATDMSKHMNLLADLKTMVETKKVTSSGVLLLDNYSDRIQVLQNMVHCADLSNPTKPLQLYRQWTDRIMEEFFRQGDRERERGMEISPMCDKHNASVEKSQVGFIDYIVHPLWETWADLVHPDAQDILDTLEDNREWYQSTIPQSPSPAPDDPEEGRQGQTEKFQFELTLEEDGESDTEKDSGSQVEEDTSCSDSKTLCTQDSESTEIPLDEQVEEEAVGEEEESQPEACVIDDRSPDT
smiles,measurement,value
"COc1cc(-c2ccccc2)c(OC)c(O)c1-c1ccc2c(c1)C=CC(C)(C)O2 [compound 3, Sanshamycin C]",IC50,5.54 ± 0.24 µM
